Legend:
BaF3 [1] = assay: Antiproliferative activity against mouse BaF3 cells harbouring FLT3-ITD assessed as inhibition of cell growth measured after 3 days by celltiter-glo luminescent cell viability assay; type: functional, cell-based; details: BaF3, 72 h
BaF3 [2] = assay: Antiproliferative activity against mouse BaF3 cells harbouring VEGFR2 assessed as inhibition of cell growth measured after 3 days by celltiter-glo luminescent cell viability assay; type: functional, cell-based; details: BaF3, 72 h
BaF3 [3] = assay: Antiproliferative activity against wild type mouse BaF3 cells assessed as inhibition of cell growth measured after 3 days by celltiter-glo luminescent cell viability assay; type: functional, cell-based; details: BaF3, 72 h
MOLM-13 [4] = assay: Antitumor activity against human MOLM-13 xenografted in male nude mouse assessed as tumor growth inhibition at 20 mg/kg, po administered once daily for 14 days by vernier caliper method relative to control; type: functional; details: MOLM-13, 336 h, time 14 day, read-out: TGI
MOLM-13 [5] = assay: Induction of apoptosis in human MOLM-13 cells assessed as viable cells at 0.1 uM incubated for 48 hrs by Annexin V-FITC/PI staining based flow cytometry analysis (reference value: 91.9%); type: functional; details: read-out: Activity
MOLM-13 [6] = assay: Induction of apoptosis in human MOLM-13 cells assessed as early apoptotic cells at 0.1 uM incubated for 48 hrs by Annexin V-FITC/PI staining based flow cytometry analysis (reference value: 4.93%); type: functional
MOLM-13 [7] = assay: Induction of apoptosis in human MOLM-13 cells assessed as late apoptotic cells at 0.1 uM incubated for 48 hrs by Annexin V-FITC/PI staining based flow cytometry analysis (reference value: 3.10%); type: functional
MOLM-13 [8] = assay: Induction of apoptosis in human MOLM-13 cells assessed as necrotic cells at 0.1 uM incubated for 48 hrs by Annexin V-FITC/PI staining based flow cytometry analysis (reference value: 0.077%); type: functional
MOLM-13 [9] = assay: Induction of cell cycle arrest in human MOLM-13 cells assessed as accumulation of cells at G1 phase at 0.1 uM incubated for 48 hrs (reference value: 40.3%); type: functional
MOLM-13 [10] = assay: Induction of cell cycle arrest in human MOLM-13 cells assessed as accumulation of cells at S phase at 0.1 uM incubated for 48 hrs (reference value: 41.6%); type: functional
MOLM-13 [11] = assay: Induction of cell cycle arrest in human MOLM-13 cells assessed as accumulation of cells at G2 phase at 0.1 uM incubated for 48 hrs (reference value: […]); type: functional

| SMILES | IC50 (BaF3 [1]) | IC50 (BaF3 [2]) | IC50 (BaF3 [3]) | other results |
| --- | --- | --- | --- | --- |
| Cc1cc(=O)n(-c2cc(F)ccc2Cl)nc1C(=O)Nc1ccc(Oc2ccnc(NC(=O)N3CC(O)C3)c2)c(F)c1 | 1880 nM | 5320 nM | > 10000 nM |  |
| Cc1cc(=O)n(-c2ccc(I)cc2)nc1C(=O)Nc1ccc(Oc2ccnc(NC(=O)N3CC(O)C3)c2)c(F)c1 | 4300 nM |  | > 10000 nM |  |
| Cc1cc(=O)n(-c2cc(Cl)ccc2F)nc1C(=O)Nc1ccc(Oc2ccnc(NC(=O)N3CCC(N4CCN(C)CC4)CC3)c2)c(F)c1 | 800 nM | 1190 nM | 8500 nM |  |
| Cc1cc(=O)n(-c2ccc(S(C)(=O)=O)cc2)nc1C(=O)Nc1ccc(Oc2ccnc(NC(=O)N3CC(O)C3)c2)c(F)c1 | > 10000 nM |  | > 10000 nM |  |
| Cc1cc(=O)n(-c2cc(Cl)ccc2F)nc1C(=O)Nc1ccc(Oc2ccnc(NC(=O)NC3CCOCC3)c2)c(F)c1 | 6300 nM | 2050 nM | > 10000 nM |  |
| Cc1cc(=O)n(-c2ccccc2)nc1C(=O)Nc1ccc(Oc2ccnc(NC(=O)N3CC(O)C3)c2)c(F)c1 | 700 nM | 1160 nM | > 10000 nM |  |
| COc1cc2nccc(Oc3ccc(NC(=O)N/N=C/c4cn(-c5ccccc5OC)nn4)cc3)c2cc1OC | 5820 nM | 8070 nM |  |  |
| Cc1ccc(-n2nc(C(=O)Nc3ccc(Oc4ccnc(NC(=O)N5CC(O)C5)c4)c(F)c3)c(C)cc2=O)cc1 | 1520 nM | 2010 nM | > 10000 nM |  |
| Cc1cc(=O)n(-c2cc(Cl)ccc2F)nc1C(=O)Nc1ccc(Oc2ccnc(NC(=O)N3CCC(C)CC3)c2)c(F)c1 | 4160 nM | 5510 nM | > 10000 nM |  |
| Cc1cc(=O)n(-c2ccc(C(F)(F)F)cc2)nc1C(=O)Nc1ccc(Oc2ccnc(NC(=O)N3CC(O)C3)c2)c(F)c1 | 990 nM | 1720 nM | > 10000 nM |  |
| CCN(CC)CCNC(=O)c1c(C)[nH]c(/C=C2\C(=O)Nc3ccc(F)cc32)c1C [SUNITINIB] |  |  |  | inhibition in vivo at 20 mg/kg (MOLM-13 [4]): 73.2% |
| Cc1cc(=O)n(-c2ccc(C#N)cc2)nc1C(=O)Nc1ccc(Oc2ccnc(NC(=O)N3CC(O)C3)c2)c(F)c1 | > 10000 nM |  | > 10000 nM |  |
| COc1cc(F)ccc1-n1nc(C(=O)Nc2ccc(Oc3ccnc(NC(=O)N4CC(O)C4)c3)c(F)c2)c(C)cc1=O | 850 nM | 1480 nM | > 10000 nM |  |
| Cc1cc(=O)n(-c2ccc(OC(F)(F)F)cc2)nc1C(=O)Nc1ccc(Oc2ccnc(NC(=O)N3CC(O)C3)c2)c(F)c1 | 3910 nM |  | > 10000 nM |  |
| Cc1cc(=O)n(-c2cc(Cl)ccc2F)nc1C(=O)Nc1ccc(Oc2ccnc(NC(=O)NC3CC3)c2)c(F)c1 | 7810 nM | 5020 nM | > 10000 nM |  |
| Cc1cc(=O)n(-c2ccccc2Cl)nc1C(=O)Nc1ccc(Oc2ccnc(NC(=O)N3CC(O)C3)c2)c(F)c1 | 1870 nM | 2960 nM | > 10000 nM |  |
| Cc1cc(=O)n(-c2cc(Cl)ccc2F)nc1C(=O)Nc1ccc(Oc2ccnc(NC(=O)N3CCC(C(C)(C)O)CC3)c2)c(F)c1 | 1670 nM | 2440 nM | > 10000 nM |  |
| Cc1cc(F)ccc1-n1nc(C(=O)Nc2ccc(Oc3ccnc(NC(=O)N4CC(O)C4)c3)c(F)c2)c(C)cc1=O | 770 nM | 1250 nM | > 10000 nM |  |
| Cc1cc(=O)n(-c2ccccc2F)nc1C(=O)Nc1ccc(Oc2ccnc(NC(=O)N3CC(O)C3)c2)c(F)c1 | 670 nM | 850 nM | > 10000 nM |  |
| Cc1cc(=O)n(-c2ccc(Br)cc2)nc1C(=O)Nc1ccc(Oc2ccnc(NC(=O)N3CC(O)C3)c2)c(F)c1 | 1380 nM | 3070 nM | > 10000 nM |  |
| COc1ccc(-n2nc(C(=O)Nc3ccc(Oc4ccnc(NC(=O)N5CC(O)C5)c4)c(F)c3)c(C)cc2=O)cc1 | 1130 nM | 4210 nM | > 10000 nM |  |
| Cc1cc(=O)n(-c2cc(F)cc(Cl)c2)nc1C(=O)Nc1ccc(Oc2ccnc(NC(=O)N3CC(O)C3)c2)c(F)c1 | 730 nM | 1040 nM | > 10000 nM |  |

Continued, in another order:

| IC50 (BaF3 [1]) | IC50 (BaF3 [2]) | IC50 (BaF3 [3]) | SMILES | other results |
| --- | --- | --- | --- | --- |
| 350 nM | 440 nM | 9200 nM | Cc1cc(=O)n(-c2cccc(Cl)c2)nc1C(=O)Nc1ccc(Oc2ccnc(NC(=O)N3CC(O)C3)c2)c(F)c1 |  |
| 550 nM | 1410 nM | > 10000 nM | Cc1cc(=O)n(-c2ccc(F)cc2F)nc1C(=O)Nc1ccc(Oc2ccnc(NC(=O)N3CC(O)C3)c2)c(F)c1 |  |
| 520 nM | 1120 nM | > 10000 nM | COC1CCN(C(=O)Nc2cc(Oc3ccc(NC(=O)c4nn(-c5cc(Cl)ccc5F)c(=O)cc4C)cc3F)ccn2)C1 (stereo not given) |  |
| 610 nM | 720 nM | > 10000 nM | Cc1cc(=O)n(-c2ccc(Cl)cc2)nc1C(=O)Nc1ccc(Oc2ccnc(NC(=O)N3CC(O)C3)c2)c(F)c1 |  |
| 490 nM | 770 nM | > 10000 nM | Cc1cc(=O)n(-c2ccc(F)cc2)nc1C(=O)Nc1ccc(Oc2ccnc(NC(=O)N3CC(O)C3)c2)c(F)c1 |  |
| 400 nM | 540 nM | > 10000 nM | Cc1cc(=O)n(-c2ccc(F)c(Cl)c2)nc1C(=O)Nc1ccc(Oc2ccnc(NC(=O)N3CC(O)C3)c2)c(F)c1 |  |
| 600 nM | 1290 nM | > 10000 nM | Cc1cc(=O)n(-c2cc(Cl)ccc2F)nc1C(=O)Nc1ccc(Oc2ccnc(NC(=O)N3CCC(O)C3)c2)c(F)c1 (stereo not given) |  |
| 130 nM |  |  | CCc1nc(C(N)=O)c(Nc2ccc(N3CCC(N4CCN(C)CC4)CC3)c(OC)c2)nc1NC1CCOCC1 [GILTERITINIB] |  |
| 560 nM | 790 nM | > 10000 nM | Cc1cc(=O)n(-c2ccc(Cl)c(F)c2)nc1C(=O)Nc1ccc(Oc2ccnc(NC(=O)N3CC(O)C3)c2)c(F)c1 |  |
| 470 nM | 580 nM | > 10000 nM | Cc1cc(=O)n(-c2ccc(F)c(F)c2)nc1C(=O)Nc1ccc(Oc2ccnc(NC(=O)N3CC(O)C3)c2)c(F)c1 |  |
| 610 nM | 1010 nM | 7800 nM | Cc1cc(=O)n(-c2cc(Cl)ccc2F)nc1C(=O)Nc1ccc(Oc2ccnc(NC(=O)N3CCC(C)(O)C3)c2)c(F)c1 (stereo not given) |  |
| 630 nM | 700 nM | > 10000 nM | Cc1cc(-n2nc(C(=O)Nc3ccc(Oc4ccnc(NC(=O)N5CC(O)C5)c4)c(F)c3)c(C)cc2=O)ccc1F |  |
| 490 nM | 1450 nM | > 10000 nM | Cc1cc(=O)n(-c2cc(Cl)c(F)c(Cl)c2)nc1C(=O)Nc1ccc(Oc2ccnc(NC(=O)N3CC(O)C3)c2)c(F)c1 |  |
| 100 nM | 18 nM |  | CNC(=O)c1cc(Oc2ccc(NC(=O)Nc3ccc(Cl)c(C(F)(F)F)c3)cc2)ccn1 [SORAFENIB] | viability at 0.1 µM (MOLM-13 [5]): 25.7%; Activity (MOLM-13 [6]): 26.7%; Activity (MOLM-13 [7]): 47%; Activity (MOLM-13 [8]): 0.66%; Activity (MOLM-13 [9]): 62.9%; Activity (MOLM-13 [10]): 35.4%; Activity (MOLM-13 [11]): 0% |

From ChEMBL document CHEMBL6109114, “Design, synthesis, and biological evaluation of 4-(2-fluorophenoxy)pyridine derivatives as novel FLT3-ITD inhibitors” (Eur J Med Chem, 2025)
